Laboratory results: the NIST ThermoML archive (doi:10.1021/je060271a)

Settings: Liquid, Vibrating tube method

CCCCCCCC(=O)OCC(COC(=O)CCCCCCC)(COC(=O)CCCCCCC)COC(=O)CCCCCCC [pentaerythritol tetraoctanoate]
Settings | mass density [kg/m3]
323.15 K, 33797 kPa | 961.6
323.15 K, 33833 kPa | 961.5
323.15 K, 33870 kPa | 961.6
323.15 K, 33916 kPa | 961.7
323.15 K, 33952 kPa | 961.7
323.15 K, 33982 kPa | 961.7
323.15 K, 34010 kPa | 961.8
323.15 K, 34034 kPa | 961.7
323.15 K, 34058 kPa | 961.7
323.15 K, 34086 kPa | 961.7
323.15 K, 34110 kPa | 961.8
323.15 K, 34134 kPa | 961.8
323.15 K, 34159 kPa | 961.8
323.15 K, 34188 kPa | 961.9
323.15 K, 34213 kPa | 961.9
323.15 K, 34242 kPa | 961.8
323.15 K, 34268 kPa | 961.9
323.15 K, 34294 kPa | 961.8
323.15 K, 34321 kPa | 962.1
323.15 K, 34354 kPa | 962
323.15 K, 34382 kPa | 961.9
323.15 K, 34411 kPa | 962
323.15 K, 34448 kPa | 962.1
323.15 K, 34472 kPa | 961.9
323.15 K, 34473 kPa | 962
323.15 K, 34474 kPa | 962
323.16 K, 603.67 kPa | 941
323.16 K, 875.73 kPa | 941.2
323.16 K, 892.76 kPa | 941.2
323.16 K, 910.31 kPa | 941.3
323.16 K, 929.42 kPa | 941.3
323.16 K, 952.34 kPa | 941.3
323.16 K, 1561.9 kPa | 941.8
323.16 K, 1605.8 kPa | 941.7
323.16 K, 1638 kPa | 941.7
323.16 K, 1659.1 kPa | 941.7
323.16 K, 1674.9 kPa | 941.8
323.16 K, 1688.1 kPa | 941.8
323.16 K, 2395.8 kPa | 942.3
323.16 K, 2562.1 kPa | 942.5
323.16 K, 2571.5 kPa | 942.4
323.16 K, 2579.5 kPa | 942.4
323.16 K, 2587.6 kPa | 942.5
323.16 K, 3525.4 kPa | 943
323.16 K, 3596.1 kPa | 943.1
323.16 K, 3609.1 kPa | 943.2
323.16 K, 3622.8 kPa | 943.1
323.16 K, 3638.9 kPa | 943.2
323.16 K, 3652.2 kPa | 943.2
323.16 K, 3663.5 kPa | 943.2
323.16 K, 3682.5 kPa | 943.1
323.16 K, 3696.6 kPa | 943.1
323.16 K, 3864.6 kPa | 943.3
323.16 K, 3879.5 kPa | 943.3
323.16 K, 3913.1 kPa | 943.3
323.16 K, 3928.7 kPa | 943.4
323.16 K, 3945.2 kPa | 943.3
323.16 K, 3960.6 kPa | 943.3
323.16 K, 3976.2 kPa | 943.4
323.16 K, 3991.8 kPa | 943.3
323.16 K, 4010.5 kPa | 943.3
323.16 K, 4025.5 kPa | 943.3
323.16 K, 4044.2 kPa | 943.5
323.16 K, 4061 kPa | 943.5
323.16 K, 4225.4 kPa | 943.5
323.16 K, 4242.4 kPa | 943.6
323.16 K, 4245.7 kPa | 943.5
323.16 K, 4456.7 kPa | 943.7
323.16 K, 4480.6 kPa | 943.7
323.16 K, 4501.4 kPa | 943.6
323.16 K, 4587.3 kPa | 943.7
323.16 K, 4633.2 kPa | 943.7
323.16 K, 4694.8 kPa | 943.8
323.16 K, 4742.6 kPa | 943.9
